From US20110098312A1, “METHODS FOR PREVENTING THE DEVELOPMENT OF RETINOPATHY BY THE ORAL ADMINISTRATION OF NNR LIGANDS” (Targacept ,Inc, priority 2008, published 2011)

How the values were obtained:
Pig primary RPE cells = assay: Transepithelial resistance (TER) of RPE monolayers under oxidative stress (H2O2 and serum as source of complement); type: cell-based; settings: for Mean Diff., Fisher's PLSD for 100 nM effect: treatment / Mean Diff., Fisher's PLSD for nicotine effect: treatment: Significance Level 5%; for Mean Diff., Fisher's PLSD for nicotine effect: treatment: dose response profiles; for dose-response profile of TER preservation: range 5 nM-1 μM; for effect of compound on TER on its own: test compound controls lack H2O2; for EC50: Sus scrofa, RPE, pretreatment 1 hour prior to stressors, tested at 5 nM-1 μM, read-out: ED50 (reduction of oxidative stress-mediated TER loss)
Method: Pig primary RPE cells grown as stable monolayers were used for this set of experiments. RPE monolayers were treated with hydrogen peroxide (H2O2) and serum as a source of complement. This treatment is known to result in loss of transepithelial resistance (TER) in RPE cells that is dependent upon reactive oxygen species and superoxide production. […] Combined treatment of two stressors present in AMD (low oxidative stress and complement activation) results in TER loss; whereas each stressor alone has no effect. This loss in TER can be eliminated by pretreatment with superoxide dismutase (SOD) mimetic (MnTBAP). […] FIG. 4 is derived from the maximal effects observed in FIG. 3. […] The higher the resistance, the less injury to the cell. Note that “HI” is “heat inactivated.” Heat inactivates complement, a necessary component to cause injury to the RPE in the presence of peroxides. Pig primary RPE cells were harvested from pigs used for practice surgeries. Cultures were performed described by Ablonczy, Z. and C. E. Crosson, VEGF modulation of retinal pigment epithelium resistance. […] Chemicals. Compounds were tested at 5 nM-1 μM concentration. Compound A-E are as noted herein.

[1] = system: Rat brain endothelial cell line gp8.3 cells; assay: Alpha 7 ligand modulation of radiation-induced ROS generation; type: cell-based; settings: 10 uM ligand for 1 h prior to single dose of 10 Gy; H2DCFDA; FIG. 2
[2] = pairwise comparison versus Compound B
[3] = pairwise comparison versus Compound C
[4] = pairwise comparison versus Compound D
[5] = pairwise comparison versus Compound A

## CN[C@@]1(C)[C@@H]2CC[C@@H](C2)C1(C)C [Compound A, exo-S-mecamylamine]
Pig primary RPE cells; [2]
  Mean Diff., Fisher's PLSD for 100 nM effect: treatment: −14.209
  Mean Diff., Fisher's PLSD for nicotine effect: treatment: −16.538
Pig primary RPE cells; [3]
  Mean Diff., Fisher's PLSD for 100 nM effect: treatment: −16.276
  Mean Diff., Fisher's PLSD for nicotine effect: treatment: −14.503
Pig primary RPE cells; [4]
  Mean Diff., Fisher's PLSD for 100 nM effect: treatment: −6.177
  Mean Diff., Fisher's PLSD for nicotine effect: treatment: −9.359
Pig primary RPE cells; FIG. 4
  dose-response profile of TER preservation: exhibited a dose-response profile over the entire range used

## Cc1ccc(C(=O)N[C@@H]2C3CCN(CC3)[C@H]2Cc2cccnc2)s1 [Compound B, N-((2S,3R)-2-((pyridin-3-yl)methyl)-1-azabicyclo[2.2.2]oct-3-yl)-5-methylthiophene-2-carboxamide]
Pig primary RPE cells; FIG. 4
  dose-response profile of TER preservation: plateaued at or around the ED50 level
Pig primary RPE cells
  effect of compound on TER on its own: reduced TER on their own
[1]
  radiation-induced increase in ROS level: blocked radiation-induced increase in ROS level

## O=C(N[C@@H]1C2CCN(CC2)[C@H]1Cc1cccnc1)c1cc(F)cc(F)c1 [Compound C, N-((2S,3R)-2-((3-pyridinyl)methyl)-1-azabicyclo[2.2.2]oct-3-yl)-3,5-difluorobenzamide]
Pig primary RPE cells; FIG. 4
  EC50: < 50 nM
  dose-response profile of TER preservation: plateaued at or around the ED50 level
Pig primary RPE cells; [2]
  Mean Diff., Fisher's PLSD for 100 nM effect: treatment: 2.066
  Mean Diff., Fisher's PLSD for nicotine effect: treatment: −2.035
Pig primary RPE cells; [4]
  Mean Diff., Fisher's PLSD for 100 nM effect: treatment: 10.098
  Mean Diff., Fisher's PLSD for nicotine effect: treatment: 5.144
Pig primary RPE cells
  effect of compound on TER on its own: reduced TER on their own

## c1cncc(C2CC3CCN2CC3)c1 (stereo not drawn) [Compound D]
Pig primary RPE cells; [2]
  Mean Diff., Fisher's PLSD for 100 nM effect: treatment: −8.023
  Mean Diff., Fisher's PLSD for nicotine effect: treatment: −7.179

## C(=C\[C@H]1CCNC1)/c1cncnc1 [Compound E, (R)-5-((E)-2-pyrrolidin-3-ylvinyl)pyrimidine]
Pig primary RPE cells; FIG. 4
  EC50: ~200 nM
Pig primary RPE cells; [5]
  Mean Diff., Fisher's PLSD for 100 nM effect: treatment: 39.927
  Mean Diff., Fisher's PLSD for nicotine effect: treatment: 34.222
Pig primary RPE cells; [2]
  Mean Diff., Fisher's PLSD for 100 nM effect: treatment: 25.718
  Mean Diff., Fisher's PLSD for nicotine effect: treatment: 17.682
Pig primary RPE cells; [3]
  Mean Diff., Fisher's PLSD for 100 nM effect: treatment: 23.652
  Mean Diff., Fisher's PLSD for nicotine effect: treatment: 19.717
Pig primary RPE cells; [4]
  Mean Diff., Fisher's PLSD for 100 nM effect: treatment: 33.750
  Mean Diff., Fisher's PLSD for nicotine effect: treatment: 24.861

## O=C(O)c1ccc(/C2=C3\C=CC(=N3)/C(c3ccc(C(=O)O)cc3)=c3/cc/c4[n]3[Mn]([Cl])[n]3c2ccc3/C(c2ccc(C(=O)O)cc2)=C2/C=CC(=N2)\C=4c2ccc(C(=O)O)cc2)cc1 [MnTBAP, reference compound]
Pig primary RPE cells; pretreatment, low oxidative stress and complement activation
  loss in TER caused by combined stressors: eliminated

## CN1CCCC1c1cccnc1 (stereo not drawn) [nicotine, reference compound]
Pig primary RPE cells; H2O2 + serum, dose response, FIG. 4
  reduction of oxidative stress-mediated loss of epithelial cell integrity (TER deterioration): reduces transepithelial resistance (TER) deterioration in the presence of stress in a dose-dependent manner
